According to patent US20250228239A1, “MOLECULES HAVING PESTICIDAL UTILITY, AND INTERMEDIATES, COMPOSITIONS, AND PROCESSES, RELATED THERETO” (priority 2024, published 2025):

How the values were obtained:
[1] = test system: Beet Armyworm (Spodoptera exigua, LAPHEG); test: Bioassays on Beet Armyworm (BAW), 128-well diet tray assay; assay type: in vivo; settings: Spodoptera exigua; Table ABC: Biological Results; species BAW; read-out: BAW
Method in brief: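 Diet-overlay assay: 50 μg/cm^2 compound applied in 90:10 acetone-water to artificial diet, allowed to dry, then infested with 1–5 L2 larvae/well; 8 wells/compound; covered, vented; 25° C., 14:10 L:D, 5–7 d; % mortality per well, averaged.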

[2] = test system: Cabbage Looper (Trichoplusia ni, TRIPNI); test: Bioassays on Cabbage Looper (CL), 128-well diet tray assay; assay type: in vivo; settings: Trichoplusia ni; Table ABC: Biological Results; species CL; read-out: CL
Method in brief: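 Activity is mean percent mortality over eight wells of second-instar larvae exposed to diet treated at 50 μg/cm^2 for 5–7 days at 25° C.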

| SMILES | pest or weed control at 50 µg/cm2 [1] [%] | pest or weed control at 50 µg/cm2 [2] [%] |
| --- | --- | --- |
| O=C(Nc1ccc(F)c(NC(=O)C(F)F)c1F)c1cc(NC(=O)[C@H]2[C@H](c3cc(Cl)cc(Cl)c3)C2(Cl)Cl)ccc1Cl [F1268, 2-Chloro-5-((1R,3R)-2,2-dichloro-3-(3,5-dichlorophenyl)cyclopropane-1-carboxamido)-N-(3-(2,2-difluoroacetamido)-2,4-difluorophenyl)benzamide] | 50 to 100 | 50 to 100 |
| O=C(Nc1ccc(F)c(NC(=O)C(F)F)c1F)c1cc(NC(=O)[C@H]2[C@H](c3cc(Cl)c(Cl)c(Cl)c3)C2(Cl)Cl)ccc1Cl [F1269, 2-Chloro-5-((1R,3R)-2,2-dichloro-3-(3,4,5-trichlorophenyl)cyclopropane-1-carboxamido)-N-(3-(2,2-difluoroacetamido)-2,4-difluorophenyl)benzamide] | 50 to 100 | 50 to 100 |
| O=C(Nc1c(F)cc(NC(=O)C(Cl)Cl)cc1F)c1cc(NC(=O)[C@H]2[C@H](c3ccc(Cl)c(Cl)c3)C2(Cl)Cl)ccc1Cl [F1272, 2-Chloro-5-((1R,3R)-2,2-dichloro-3-(3,4-dichlorophenyl)cyclopropane-1-carboxamido)-N-(4-(2,2-dichloroacetamido)-2,6-difluorophenyl)benzamide] | 50 to 100 | 50 to 100 |
| CC(C)(C)C(=O)Nc1c(F)ccc(NC(=O)c2cc(NC(=O)[C@H]3[C@H](c4ccc(F)c(C(F)(F)F)c4)C3(Cl)Cl)ccc2Cl)c1F [F1274, 2-Chloro-5-((1R,3R)-2,2-dichloro-3-(4-fluoro-3-(trifluoromethyl)phenyl)cyclopropane-1-carboxamido)-N-(2,4-difluoro-3-pivalamidophenyl)benzamide] | 50 to 100 | 50 to 100 |
| Nc1c(F)ccc(NC(=O)c2cc(NC(=O)[C@H]3[C@H](c4ccc(Cl)c(Cl)c4)C3(Cl)Cl)cc(F)c2Cl)c1F [F1284, N-(3-Amino-2,4-difluorophenyl)-2-chloro-5-((1R,3R)-2,2-dichloro-3-(3,4-dichlorophenyl)cyclopropane-1-carboxamido)-3-fluorobenzamide] | 50 to 100 | 50 to 100 |
| Nc1c(F)ccc(NC(=O)c2cc(NC(=O)[C@H]3[C@H](c4ccc(F)c(C(F)(F)F)c4)C3(Cl)Cl)cc(F)c2Cl)c1F [F1285, N-(3-Amino-2,4-difluorophenyl)-2-chloro-5-((1R,3R)-2,2-dichloro-3-(4-fluoro-3-(trifluoromethyl)phenyl)cyclopropane-1-carboxamido)-3-fluorobenzamide] | 50 to 100 | 50 to 100 |
| O=C(Nc1ccc(F)c(NC(=O)C(F)F)c1F)c1cc(NC(=O)[C@H]2[C@H](c3ccc(Cl)c(Cl)c3)C2(Cl)Cl)cc(F)c1Cl [F1287, 2-Chloro-5-((1R,3R)-2,2-dichloro-3-(3,4-dichlorophenyl)cyclopropane-1-carboxamido)-N-(3-(2,2-difluoroacetamido)-2,4-difluorophenyl)-3-fluorobenzamide] | 50 to 100 | 50 to 100 |
| O=C(Nc1ccc(F)c(NC(=O)C(F)(F)F)c1F)c1cc(NC(=O)[C@H]2[C@H](c3ccc(Cl)c(Cl)c3)C2(Cl)Cl)cc(F)c1Cl [F1288, 2-Chloro-5-((1R,3R)-2,2-dichloro-3-(3,4-dichlorophenyl)cyclopropane-1-carboxamido)-N-(2,4-difluoro-3-(2,2,2-trifluoroacetamido)phenyl)-3-fluorobenzamide] | 50 to 100 | 50 to 100 |
| O=C(Nc1ccc(F)c(NC(=O)C(F)F)c1F)c1cc(NC(=O)[C@H]2[C@H](c3ccc(F)c(C(F)(F)F)c3)C2(Cl)Cl)cc(F)c1Cl [F1289, 2-Chloro-5-((1R,3R)-2,2-dichloro-3-(4-fluoro-3-(trifluoromethyl)phenyl)-cyclopropane-1-carboxamido)-N-(3-(2,2-difluoroacetamido)-2,4-difluorophenyl)-3-fluorobenzamide] | 50 to 100 | 50 to 100 |
| O=C(Nc1ccc(F)c(NC(=O)C(F)(F)F)c1F)c1cc(NC(=O)[C@H]2[C@H](c3ccc(F)c(C(F)(F)F)c3)C2(Cl)Cl)cc(F)c1Cl [F1290, 2-Chloro-5-((1R,3R)-2,2-dichloro-3-(4-fluoro-3-(trifluoromethyl)phenyl)cyclopropane-1-carboxamido)-N-(2,4-difluoro-3-(2,2,2-trifluoroacetamido)phenyl)-3-fluorobenzamide] | 50 to 100 | 50 to 100 |
| O=C(Nc1ccc(F)c(NC(=O)C(F)(F)F)c1F)c1cc(NC(=O)[C@H]2[C@H](c3ccc(F)c(Cl)c3)C2(Cl)Cl)cc(F)c1Cl [F1291, 2-Chloro-5-((1R,3R)-2,2-dichloro-3-(3-chloro-4-fluorophenyl)cyclopropane-1-carboxamido)-N-(2,4-difluoro-3-(2,2,2-trifluoroacetamido)phenyl)-3-fluorobenzamide] | 50 to 100 | 50 to 100 |
| O=C(Nc1ccc(F)c(NCc2ccc([N+](=O)[O-])cc2)c1F)c1cc(NC(=O)[C@H]2[C@H](c3ccc(F)c(C(F)(F)F)c3)C2(Cl)Cl)ccc1Cl [F1296, 2-Chloro-5-((1R,3R)-2,2-dichloro-3-(4-fluoro-3-(trifluoromethyl)phenyl)cyclopropane-1-carboxamido)-N-(2,4-difluoro-3-((4-nitrobenzyl)amino)phenyl)benzamide] | 50 to 100 | 50 to 100 |
| Cc1ccc(C(=O)Nc2c(F)ccc(NC(=O)c3cc(NC(=O)[C@H]4[C@H](c5ccc(F)c(C(F)(F)F)c5)C4(Cl)Cl)ccc3Cl)c2F)s1 [F1302, N-(3-(2-Chloro-5-((1R,3R)-2,2-dichloro-3-(4-fluoro-3-(trifluoromethyl)phenyl)cyclopropane-1-carboxamido)benzamido)-2,6-difluorophenyl)-5-methylthiophene-2-carboxamide] | 50 to 100 | 50 to 100 |
| Nc1c(F)ccc(NC(=O)c2cc(NC(=O)[C@H]3[C@H](c4cc(Cl)cc(Cl)c4)C3(Cl)Cl)cc(F)c2Cl)c1F [F1324, N-(3-Amino-2,4-difluorophenyl)-2-chloro-5-((1R,3R)-2,2-dichloro-3-(3,5-dichlorophenyl)cyclopropane-1-carboxamido)-3-fluorobenzamide] | 50 to 100 | 50 to 100 |
| Nc1c(F)ccc(NC(=O)c2cc(NC(=O)[C@H]3[C@H](c4cc(Cl)c(Cl)c(Cl)c4)C3(Cl)Cl)cc(F)c2Cl)c1F [F1325, N-(3-Amino-2,4-difluorophenyl)-2-chloro-5-((1R,3R)-2,2-dichloro-3-(3,4,5-trichlorophenyl)cyclopropane-1-carboxamido)-3-fluorobenzamide] | 50 to 100 | 50 to 100 |
| O=C(Nc1ccc(F)c(NC(=O)C(F)(F)F)c1F)c1cc(NC(=O)[C@H]2[C@H](c3cc(Cl)cc(Cl)c3)C2(Cl)Cl)cc(F)c1Cl [F1330, 2-Chloro-5-((1R,3R)-2,2-dichloro-3-(3,5-dichlorophenyl)cyclopropane-1-carboxamido)-N-(2,4-difluoro-3-(2,2,2-trifluoroacetamido)phenyl)-3-fluorobenzamide] | 50 to 100 | 50 to 100 |
| O=C(Nc1ccc(F)c(NC(=O)C(F)F)c1F)c1cc(NC(=O)[C@H]2[C@H](c3cc(Cl)cc(Cl)c3)C2(Cl)Cl)cc(F)c1Cl [F1333, 2-Chloro-5-((1R,3R)-2,2-dichloro-3-(3,5-dichlorophenyl)cyclopropane-1-carboxamido)-N-(3-(2,2-difluoroacetamido)-2,4-difluorophenyl)-3-fluorobenzamide] | 50 to 100 | 50 to 100 |
| O=C(Nc1ccc(F)c(NC(=O)C(F)(F)F)c1F)c1cc(NC(=O)[C@H]2[C@H](c3cc(Cl)c(Cl)c(Cl)c3)C2(Cl)Cl)cc(F)c1Cl [F1334, 2-Chloro-5-((1R,3R)-2,2-dichloro-3-(3,4,5-trichlorophenyl)cyclopropane-1-carboxamido)-N-(2,4-difluoro-3-(2,2,2-trifluoroacetamido)phenyl)-3-fluorobenzamide] | 50 to 100 | 50 to 100 |
| O=C(Nc1ccc(F)c(NC(=O)C(F)F)c1F)c1cc(NC(=O)[C@H]2[C@H](c3cc(Cl)c(Cl)c(Cl)c3)C2(Cl)Cl)cc(F)c1Cl [F1335, 2-Chloro-5-((1R,3R)-2,2-dichloro-3-(3,4,5-trichlorophenyl)cyclopropane-1-carboxamido)-N-(3-(2,2-difluoroacetamido)-2,4-difluorophenyl)-3-fluorobenzamide] | 50 to 100 | 50 to 100 |
| Nc1ccc(F)c(NC(=O)c2cc(NC(=O)[C@H]3[C@H](c4cc(Cl)cc(Cl)c4)C3(Cl)Cl)cc(F)c2Cl)c1F [F1336, N-(3-Amino-2,6-difluorophenyl)-2-chloro-5-((1R,3R)-2,2-dichloro-3-(3,5-dichlorophenyl)cyclopropane-1-carboxamido)-3-fluorobenzamide] | 50 to 100 | 50 to 100 |
| Nc1ccc(F)c(NC(=O)c2cc(NC(=O)[C@H]3[C@H](c4cc(Cl)c(Cl)c(Cl)c4)C3(Cl)Cl)cc(F)c2Cl)c1F [F1337, N-(3-Amino-2,6-difluorophenyl)-2-chloro-5-((1R,3R)-2,2-dichloro-3-(3,4,5-trichlorophenyl)cyclopropane-1-carboxamido)-3-fluorobenzamide] | 50 to 100 | 50 to 100 |
| Nc1ccc(F)c(NC(=O)c2cc(NC(=O)[C@H]3[C@H](c4ccc(Cl)c(Cl)c4)C3(Cl)Cl)cc(F)c2Cl)c1F [F1338, N-(3-Amino-2,6-difluorophenyl)-2-chloro-5-((1R,3R)-2,2-dichloro-3-(3,4-dichlorophenyl)cyclopropane-1-carboxamido)-3-fluorobenzamide] | 50 to 100 | 50 to 100 |
